# Results from paper PMC4448990 (Pharmacology Research & Perspectives, 2015).
# Assays:
# [1] = molecular target: human α2β2γ2 GABAA receptors (Homo sapiens, UniProt P18507+P47869+P47870); assay: submaximal GABA currents in Ltk cells; type: cell-based
# human GRIA1 receptor = human GRIA1 receptor (Homo sapiens, UniProt P42261); assay: AMPA-receptor-mediated currents in CHO cells; type: cell-based; conditions: CHO cells, human GRIA1
# [2] = molecular target: T1, human GlyRα3 glycine receptors (Homo sapiens, UniProt O75311); assay: submaximal glycine currents in CHO cells; type: cell-based
# T1 sequence (O75311 34-464): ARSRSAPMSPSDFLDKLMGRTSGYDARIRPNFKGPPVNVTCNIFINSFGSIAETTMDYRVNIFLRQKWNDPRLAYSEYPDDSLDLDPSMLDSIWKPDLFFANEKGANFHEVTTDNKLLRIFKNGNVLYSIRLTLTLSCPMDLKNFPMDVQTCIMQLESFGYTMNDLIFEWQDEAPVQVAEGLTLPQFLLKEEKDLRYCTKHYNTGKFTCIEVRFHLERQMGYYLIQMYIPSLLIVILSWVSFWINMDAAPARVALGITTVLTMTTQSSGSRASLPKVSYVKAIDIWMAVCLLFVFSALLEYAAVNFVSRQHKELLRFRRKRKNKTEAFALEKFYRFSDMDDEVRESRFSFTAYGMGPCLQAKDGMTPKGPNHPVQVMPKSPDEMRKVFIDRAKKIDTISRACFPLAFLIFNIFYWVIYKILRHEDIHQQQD
# Adenosine, A1 (h) = Adenosine, A1 (h) (Homo sapiens, UniProt P30542); assay: in vitro selectivity profile; type: binding
# Adenosine, A1 (h), sequence (P30542 whole entry): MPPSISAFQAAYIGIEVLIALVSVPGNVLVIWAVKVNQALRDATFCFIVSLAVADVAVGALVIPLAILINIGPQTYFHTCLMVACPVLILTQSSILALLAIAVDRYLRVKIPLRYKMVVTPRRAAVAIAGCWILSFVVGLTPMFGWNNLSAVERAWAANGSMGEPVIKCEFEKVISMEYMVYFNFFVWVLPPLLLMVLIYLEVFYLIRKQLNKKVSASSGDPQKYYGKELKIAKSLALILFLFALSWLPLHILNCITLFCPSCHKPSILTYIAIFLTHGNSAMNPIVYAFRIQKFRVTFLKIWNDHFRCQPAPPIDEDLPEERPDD
# Adenosine, A2 = assay: in vitro selectivity profile; type: binding; conditions: eslicarbazepine 400 μmol/L
# Adenosine, A2A (h) = Adenosine, A2A (h) (Homo sapiens, UniProt P29274); assay: in vitro selectivity profile; type: binding
# Adenosine, A2A (h), sequence (P29274 whole entry): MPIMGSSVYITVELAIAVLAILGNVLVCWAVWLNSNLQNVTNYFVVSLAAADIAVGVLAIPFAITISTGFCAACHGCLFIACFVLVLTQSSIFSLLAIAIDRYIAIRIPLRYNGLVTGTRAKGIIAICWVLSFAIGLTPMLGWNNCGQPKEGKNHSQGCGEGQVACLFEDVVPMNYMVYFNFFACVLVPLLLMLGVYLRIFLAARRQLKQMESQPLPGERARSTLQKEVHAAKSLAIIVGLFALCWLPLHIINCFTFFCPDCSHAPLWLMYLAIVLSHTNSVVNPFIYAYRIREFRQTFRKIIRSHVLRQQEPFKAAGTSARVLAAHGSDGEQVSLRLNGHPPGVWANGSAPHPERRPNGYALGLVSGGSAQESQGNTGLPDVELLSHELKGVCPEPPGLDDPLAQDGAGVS
# Dopamine transporter (h) = Dopamine transporter (h) (Homo sapiens, UniProt Q01959); assay: in vitro selectivity profile; type: binding
# Dopamine transporter (h), sequence (Q01959 whole entry): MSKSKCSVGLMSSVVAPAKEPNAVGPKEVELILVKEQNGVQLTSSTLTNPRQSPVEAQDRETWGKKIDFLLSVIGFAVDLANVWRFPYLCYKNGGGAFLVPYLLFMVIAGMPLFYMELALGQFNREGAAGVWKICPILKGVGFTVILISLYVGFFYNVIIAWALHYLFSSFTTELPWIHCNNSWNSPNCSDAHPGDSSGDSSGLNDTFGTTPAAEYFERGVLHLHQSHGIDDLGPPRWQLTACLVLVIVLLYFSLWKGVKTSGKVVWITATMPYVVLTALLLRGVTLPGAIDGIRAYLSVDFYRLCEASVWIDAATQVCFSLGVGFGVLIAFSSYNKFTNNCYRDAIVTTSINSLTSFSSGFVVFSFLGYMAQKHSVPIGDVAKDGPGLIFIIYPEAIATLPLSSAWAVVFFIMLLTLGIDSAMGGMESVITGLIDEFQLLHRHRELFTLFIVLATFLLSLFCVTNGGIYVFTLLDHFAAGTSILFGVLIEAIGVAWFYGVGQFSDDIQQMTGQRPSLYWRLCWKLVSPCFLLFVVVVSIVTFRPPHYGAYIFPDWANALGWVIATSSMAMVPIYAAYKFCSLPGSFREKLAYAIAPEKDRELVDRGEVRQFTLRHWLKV
# Dopamine, D4.2 (h) = Dopamine, D4.2 (h) (Homo sapiens, UniProt P21917, DEL265-296); assay: in vitro selectivity profile; type: binding
# [3] = system: GABA A, BDZ, alpha 1 site; assay: in vitro selectivity profile; type: binding; conditions: eslicarbazepine 400 μmol/L
# Glutamate, AMPA site = assay: in vitro selectivity profile; type: binding; conditions: eslicarbazepine 400 μmol/L
# Glutamate, mGluR5 = assay: in vitro selectivity profile; type: binding; conditions: eslicarbazepine 400 μmol/L
# [4] = system: Glutamate, NMDA, glycine (strychnine-insensitive); assay: in vitro selectivity profile; type: binding; conditions: eslicarbazepine 400 μmol/L
# Histamine, H3 = assay: in vitro selectivity profile; type: binding; conditions: eslicarbazepine 400 μmol/L
# [5] = system: Nicotinic, neuronal [a-BnTx insensitive] (h); assay: in vitro selectivity profile; type: binding, human; conditions: eslicarbazepine 400 μmol/L
# Opioid, delta 2 (h) = Opioid, delta 2 (h) (Homo sapiens, UniProt P41143); assay: in vitro selectivity profile; type: binding
# Opioid, kappa 1 = assay: in vitro selectivity profile; type: binding; conditions: eslicarbazepine 400 μmol/L
# Opioid, Mu (h) = Opioid, Mu (h) (Homo sapiens, UniProt P35372); assay: in vitro selectivity profile; type: binding
# [6] = system: Serotonin, 5HT1, nonselective; assay: in vitro selectivity profile; type: binding; conditions: eslicarbazepine 400 μmol/L
# Serotonin, 5HT1A (h) = Serotonin, 5HT1A (h) (Homo sapiens, UniProt P08908); assay: in vitro selectivity profile; type: binding
# Serotonin, 5HT1A (h), sequence (P08908 whole entry): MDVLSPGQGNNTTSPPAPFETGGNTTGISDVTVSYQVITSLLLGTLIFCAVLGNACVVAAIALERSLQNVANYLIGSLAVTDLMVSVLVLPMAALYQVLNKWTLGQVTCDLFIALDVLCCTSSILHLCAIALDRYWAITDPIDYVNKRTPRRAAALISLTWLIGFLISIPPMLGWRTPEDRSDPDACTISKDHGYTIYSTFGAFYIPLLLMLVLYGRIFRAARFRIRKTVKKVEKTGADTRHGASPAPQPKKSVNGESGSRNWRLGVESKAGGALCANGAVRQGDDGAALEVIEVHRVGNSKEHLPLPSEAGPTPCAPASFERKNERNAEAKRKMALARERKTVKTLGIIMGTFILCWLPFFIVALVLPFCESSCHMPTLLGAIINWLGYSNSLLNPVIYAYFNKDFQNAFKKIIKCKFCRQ
# Serotonin, 5HT3 = assay: in vitro selectivity profile; type: binding; conditions: eslicarbazepine 400 μmol/L
# Calcium channel, type N = assay: in vitro selectivity profile; type: binding; conditions: eslicarbazepine 400 μmol/L
# [7] = system: Thyrotropin-releasing hormone, TRH; assay: in vitro selectivity profile; type: binding; conditions: eslicarbazepine 400 μmol/L
# [8] = system: Cholecystokinin, CCK2 (CCKB); assay: in vitro selectivity profile; type: binding; conditions: eslicarbazepine 400 μmol/L
# [9] = molecular target: Anhydrase, carbonic, isozyme I (h) (Homo sapiens, UniProt P00915); assay: in vitro selectivity profile; type: biochemical
# Anhydrase, carbonic, isozyme I (h), sequence (P00915 whole entry): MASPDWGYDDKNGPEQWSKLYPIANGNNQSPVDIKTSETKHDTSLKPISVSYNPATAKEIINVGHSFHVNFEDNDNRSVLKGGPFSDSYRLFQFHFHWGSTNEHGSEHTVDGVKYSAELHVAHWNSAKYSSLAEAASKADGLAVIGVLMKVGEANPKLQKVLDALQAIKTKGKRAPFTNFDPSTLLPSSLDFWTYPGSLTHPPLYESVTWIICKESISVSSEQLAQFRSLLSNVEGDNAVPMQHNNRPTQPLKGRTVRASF
# [10] = molecular target: Esterase, acetylcholine (h) (Homo sapiens, UniProt P22303); assay: in vitro selectivity profile; type: biochemical
# Esterase, acetylcholine (h), sequence (P22303 32-614): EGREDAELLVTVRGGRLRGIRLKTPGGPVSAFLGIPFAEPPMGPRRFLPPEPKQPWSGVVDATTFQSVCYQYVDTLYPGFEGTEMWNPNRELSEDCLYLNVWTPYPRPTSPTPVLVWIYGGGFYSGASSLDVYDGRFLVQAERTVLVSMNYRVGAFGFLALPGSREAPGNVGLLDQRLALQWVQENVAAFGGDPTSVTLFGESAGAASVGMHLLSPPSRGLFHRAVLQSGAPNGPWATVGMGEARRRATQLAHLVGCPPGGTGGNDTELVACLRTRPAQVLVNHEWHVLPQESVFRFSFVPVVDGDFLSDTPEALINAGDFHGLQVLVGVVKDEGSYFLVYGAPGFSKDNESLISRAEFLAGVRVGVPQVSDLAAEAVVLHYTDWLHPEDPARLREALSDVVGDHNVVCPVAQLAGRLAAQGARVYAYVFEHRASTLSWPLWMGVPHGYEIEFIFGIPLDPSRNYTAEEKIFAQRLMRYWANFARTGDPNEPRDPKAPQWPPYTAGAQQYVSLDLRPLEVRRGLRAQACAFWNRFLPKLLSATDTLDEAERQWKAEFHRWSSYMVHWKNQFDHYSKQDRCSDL
# Oxidase, MAO-A, central = assay: in vitro selectivity profile; type: biochemical; conditions: eslicarbazepine 400 μmol/L
# [11] = molecular target: Protease, caspase, CASP-1 (h) (Homo sapiens, UniProt P29466); assay: in vitro selectivity profile; type: biochemical
# Protease, caspase, CASP-1 (h), sequence (P29466 120-297 limits assumed): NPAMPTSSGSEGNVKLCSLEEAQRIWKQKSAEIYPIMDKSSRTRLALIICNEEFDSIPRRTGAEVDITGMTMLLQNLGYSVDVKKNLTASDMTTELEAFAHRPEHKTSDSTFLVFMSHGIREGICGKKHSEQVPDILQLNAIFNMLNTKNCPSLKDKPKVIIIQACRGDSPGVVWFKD
# Protease, caspase, CASP-1 (h), sequence (P29466 317-404 limits assumed): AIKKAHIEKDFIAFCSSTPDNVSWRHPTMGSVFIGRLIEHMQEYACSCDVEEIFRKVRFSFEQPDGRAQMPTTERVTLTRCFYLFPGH
# [12] = system: Transferase, choline acetyl; assay: in vitro selectivity profile; type: biochemical; conditions: eslicarbazepine 400 μmol/L
# [13] = molecular target: Kinase, protein, CK1d (CSNK1D) (h) (Homo sapiens, UniProt P48730); assay: in vitro selectivity profile; type: biochemical
# Kinase, protein, CK1d (CSNK1D) (h), sequence (P48730 whole entry): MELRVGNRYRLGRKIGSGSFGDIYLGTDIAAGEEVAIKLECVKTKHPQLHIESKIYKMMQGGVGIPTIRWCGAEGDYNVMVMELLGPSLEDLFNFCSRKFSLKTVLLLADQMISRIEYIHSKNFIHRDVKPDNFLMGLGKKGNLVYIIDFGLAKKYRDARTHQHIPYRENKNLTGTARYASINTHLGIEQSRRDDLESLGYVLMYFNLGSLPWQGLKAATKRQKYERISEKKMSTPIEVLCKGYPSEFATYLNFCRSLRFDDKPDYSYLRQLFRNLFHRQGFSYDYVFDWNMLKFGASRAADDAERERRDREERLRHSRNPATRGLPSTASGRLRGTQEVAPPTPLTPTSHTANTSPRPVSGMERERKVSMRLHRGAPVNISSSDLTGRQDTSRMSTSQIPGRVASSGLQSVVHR
# Kinase, protein, Fyn (h) = Kinase, protein, Fyn (h) (Homo sapiens, UniProt P06241); assay: in vitro selectivity profile; type: biochemical
# transient Na+ channels = conditions: ref Döser et al. [2013c], [2015]; cited from earlier work
# [14] = cited from earlier work
# human α2β2γ2 GABAA receptors, sequence (P47869 29-451): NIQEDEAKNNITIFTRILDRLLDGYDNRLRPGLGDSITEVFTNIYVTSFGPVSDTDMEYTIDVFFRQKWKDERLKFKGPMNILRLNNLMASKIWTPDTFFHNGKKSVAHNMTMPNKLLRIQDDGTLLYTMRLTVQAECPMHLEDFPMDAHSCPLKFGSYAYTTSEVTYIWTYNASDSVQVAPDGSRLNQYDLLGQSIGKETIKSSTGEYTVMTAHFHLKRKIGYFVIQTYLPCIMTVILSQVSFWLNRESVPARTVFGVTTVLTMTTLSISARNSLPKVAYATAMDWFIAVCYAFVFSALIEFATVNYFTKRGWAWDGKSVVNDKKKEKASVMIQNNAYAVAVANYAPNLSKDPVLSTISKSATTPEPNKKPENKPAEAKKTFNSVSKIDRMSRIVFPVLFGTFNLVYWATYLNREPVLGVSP
# human α2β2γ2 GABAA receptors, sequence (P47870 25-512 limits assumed): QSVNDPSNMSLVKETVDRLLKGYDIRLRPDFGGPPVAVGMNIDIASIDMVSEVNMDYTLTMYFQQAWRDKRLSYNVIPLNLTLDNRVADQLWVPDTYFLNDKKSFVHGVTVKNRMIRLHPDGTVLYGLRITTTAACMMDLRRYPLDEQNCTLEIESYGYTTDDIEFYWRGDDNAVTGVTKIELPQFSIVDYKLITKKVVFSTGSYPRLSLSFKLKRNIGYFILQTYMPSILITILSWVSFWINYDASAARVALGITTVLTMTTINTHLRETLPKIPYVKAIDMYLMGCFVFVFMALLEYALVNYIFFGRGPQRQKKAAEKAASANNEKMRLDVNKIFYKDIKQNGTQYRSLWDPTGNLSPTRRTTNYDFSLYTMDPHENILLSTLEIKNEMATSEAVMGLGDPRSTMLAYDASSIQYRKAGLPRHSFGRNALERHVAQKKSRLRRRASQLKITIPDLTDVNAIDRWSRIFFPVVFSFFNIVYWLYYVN
# human α2β2γ2 GABAA receptors, sequence (P18507 40-475): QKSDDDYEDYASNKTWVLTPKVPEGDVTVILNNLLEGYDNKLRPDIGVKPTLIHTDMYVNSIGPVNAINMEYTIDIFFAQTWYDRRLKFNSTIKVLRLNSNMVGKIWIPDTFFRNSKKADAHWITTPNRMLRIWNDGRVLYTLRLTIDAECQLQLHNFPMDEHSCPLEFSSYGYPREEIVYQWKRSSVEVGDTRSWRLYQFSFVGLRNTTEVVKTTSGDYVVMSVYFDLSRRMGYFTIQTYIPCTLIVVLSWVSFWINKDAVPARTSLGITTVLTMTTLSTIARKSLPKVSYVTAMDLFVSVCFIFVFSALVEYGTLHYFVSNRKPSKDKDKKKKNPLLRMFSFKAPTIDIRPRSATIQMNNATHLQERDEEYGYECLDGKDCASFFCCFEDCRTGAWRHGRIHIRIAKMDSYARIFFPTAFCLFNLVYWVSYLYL
compound,measurement,setting,value
NC(=O)N1c2ccccc2C[C@H](O)c2ccccc21 [eslicarbazepine],"GABA inward current stimulation, α2β2γ2, Mean ± SEM",[1]; 50 μmol/L,91.6 ± 2.7
same,"GABA inward current stimulation, α2β2γ2, Mean ± SEM",[1]; 100 μmol/L,97.0 ± 2.7
same,"GABA inward current stimulation, α2β2γ2, Mean ± SEM",[1]; 250 μmol/L,88.6 ± 3.2
same,effect on submaximal α2β2γ2 GABA currents,[1]; 250 μmol/L,slight decrease
same,"GABA inward current stimulation, α2β2γ2, Mean ± SEM",[1]; 500 μmol/L,89.8 ± 4.0
same,effect on submaximal α2β2γ2 GABA currents,"[1]; 50–500 μmol/L, exception at 250 μmol/L",did not significantly change submaximal GABA currents
same,"IC50, AMPA currents",human GRIA1 receptor,neither eslicarbazepine nor CBZ significantly changed AMPA currents
same,IC50,[2],1190 µM
same,inhibition at 400 µM,"Adenosine, A1 (h)",32.3%
same,% inhibition,"Adenosine, A2",0.0%
same,inhibition at 400 µM,"Adenosine, A2A (h)",6.81%
same,inhibition at 400 µM,Dopamine transporter (h),2.85%
same,inhibition at 400 µM,"Dopamine, D4.2 (h)",0%
same,% inhibition,[3],25.92%
same,% inhibition,"Glutamate, AMPA site",0.0%
same,% inhibition,"Glutamate, mGluR5",14.42%
same,% inhibition,[4],13.21%
same,% inhibition,"Histamine, H3",0.0%
same,% inhibition,[5],23.46%
same,inhibition at 400 µM,"Opioid, delta 2 (h)",7.91%
same,% inhibition,"Opioid, kappa 1",5.39%
same,inhibition at 400 µM,"Opioid, Mu (h)",0%
same,% inhibition,[6],11.43%
same,inhibition at 400 µM,"Serotonin, 5HT1A (h)",0.4%
same,% inhibition,"Serotonin, 5HT3",10.41%
same,% inhibition,"Calcium channel, type N",23.34%
same,% inhibition,[7],16.14%
same,% inhibition,[8],32.83%
same,inhibition at 400 µM,[9],27.7%
same,inhibition at 400 µM,[10],0%
same,% inhibition,"Oxidase, MAO-A, central",15.98%
same,inhibition at 400 µM,[11],0%
same,% inhibition,[12],0.0%
same,inhibition at 400 µM,[13],5.18%
same,inhibition at 400 µM,"Kinase, protein, Fyn (h)",3.58%
same,neuronal firing in dissociated granule cells from human hippocampus,transient Na+ channels,significantly inhibited neuronal firing
same,CSF Cmax eslicarbazepine levels,"[14]; 1200 mg QD oral ESL, ref Nunes et al. [2013]",30 µM
same,share of circulating active moieties after oral ESL,"[14]; humans, ref Almeida and Soares-da-Silva [2007]",~95%
same,peak plasma concentrations of eslicarbazepine,"[14]; oral ESL 1200 mg QD, ref Perucca et al. [2011]",90 µmol/L
